Laboratory results published in patent US10413545B2, “Imidazolin-5-one derivative useful as FASN inhibitors for the treatment of cancer” (Janssen Pharmaceutica NV, priority 2013, dated 2019).
Like-named read-outs stand apart in the source and are kept apart here.

How the values were obtained:
Type in all cases: cell-based
[1] = system: LNCaP_Vancouver prostate cells; test: In Vitro LNCaP Vancouver Prostate Cell Proliferation Assay in Lipid Reduced Medium; details: Prostate cell; 10% lipid reduced serum, 96 h, ATP-glow luminescence; read-out: pIC50 LNCaP_Vancouver prostate cell (converted)
Procedure: LNCaP_Vancouver prostate cells were obtained from the Vancouver Prostate Cancer Centre.
(§1) The next day 10 μl of test compound/DMSO diluted in medium was added (3E-5M, 1E-5M, 3E-6M,1E-6M, 3E-7M, 1E-7M, 3E-8M, 1E-8M final concentration). Compounds were tested in duplicate. After 96 h incubation at 37° C., 5% CO2 25 μl ATP-glow mix was added. The plate was incubated for 30 min at 37° C. and luminescence was measured with the Envision.
(§2) Analysis: Determination of pIC50 Values
(§3) pIC50 values were calculated as follows. Raw data generated by the instruments were normalized to % Controlmin values, which were calculated as: % Controlmin=100*(x−mLC)/(mHC−mLC),
(§4) where mLC and mHC are the means of the low control wells and high control wells on the plate, after manual exclusion of outliers. The relation between the % Controlmin values and concentration was fitted to a 4-parameter logistic curve using a non-linear least squares regression method to determine the pIC50 value. Outlying data points were excluded manually to get a correct fit. The pIC50 corresponds to −log 10(IC50), if the IC50 is expressed in molar units (http://www.ncbi.nlm.nih.qovibooks/NBK91994). The IC50 parameter was always determined by non-linear regression, but one or more of the other parameters may have been held fixed on a relevant input value, such as 0 for the bottom values.

A2780 ovarian cells = test: A2780 Ovarian Cell Proliferation Assay in Lipid Reduced Medium, with and without Palmitate (MTT); details: Homo sapiens, 10% lipid-reduced serum, 96 h
Procedure: The biological assays described below correspond to comparative assays for ovarian cell proliferation.
2500 cells were seeded in a 96-well clear well plate in 200 μL RPM11640 with 10% Fetal Calf Serum (Hyclone), and incubated at 37° C., 5% CO2, Blanks were wells without cells. The next day the culture medium was aspirated and replaced by 160 μL culture medium with 10% Lipid-Reduced Serum (LRS, Hyclone). […] After 96 h incubation, an MTT assay was performed.
2500 cells were seeded in a 96-well clear well plate in 200 μL RPM11640 with 10% Fetal Calf Serum (Hyclone), and incubated at 37° C., 5% CO2. Blanks were wells without cells. The next day the culture medium was aspirated and replaced by 160 μL culture medium with 10% Lipid-Reduced Serum (LRS, Hyclone). 20 μL test compound (at concentrations of 30 μM, 10 μM, 3 μM, 1 μM, 0.30 μM, 0.10 μM, 0.03 μM and 0.01 μM)/DMSO dilution followed by 20 μL ethanol-BSA solution were added to a final concentrations of 0.2% DMSO, 0.2% fatty-acid-free BSA, 0.25% ethanol. After 96 h incubation an MTT assay was performed.
Raw data generated by the instrument were normalized to % Controlmin values, which were calculated as: % Controlmin=100*(x−mLC)/(mHC−mLC)
where mLC and mHC were the means of the low control wells and high control wells on the plate, after manual exclusion of outliers. A plot of Controlmin versus test compound concentration was fitted to a 4-parameter logistic curve using a non-linear least squares regression method.

[2] = system: PC-3M-Luc-C6 prostate cells; test: In Vitro PC-3M-Luc-C6 Prostate Cell Proliferation Assay in Lipid Reduced Medium; details: Prostate cell, read-out: pIC50 PC-3M-Luc-C6 prostate cell (converted); 10% lipid reduced serum, 96 h, ATP-glow luminescence
Procedure: PC-3M-Luc-C6 prostate cells were obtained from Xenogen Corporation. Cells were maintained in MEM supplemented with 10% Fetal Calf Serum (FCS, Hyclone), 2 mM glutamine, 1 mM sodium pyruvate, 1% BME vitamins (available from for example, Sigma Aldrich), 0.1 mM non Essential Amino Acid and 50 μg/ml Gentamicin. The cells were passaged twice a week.
as §1, with “μl” for “μl of”
as §2, §3, §4

[3] = 25 μM palmitate added (control), read-out: pIC50 With Palmitate (converted)
[4] = no palmitate, read-out: pIC50 Without Palmitate (converted)

Row | IC50 [1] | IC50 (A2780 ovarian cells; [3]) | IC50 (A2780 ovarian cells; [4]) | IC50 [2] | Compound
1 | 4370 nM | > 10000 nM | 2000 nM | ~1860 nM | CC1(c2ccccc2)N=C(c2ccc(-c3ccc4occc4c3)cc2)N(C[C@@H]2CCN(C(=O)C3CC3)C2)C1=O (mixture of isomers) [Compound 5, (4RS)-2-(4-(Benzofuran-5-yl)phenyl)-1-(((R)-1-(cyclopropanecarbonyl)pyrrolidin-3-yl)methyl)-4-methyl-4-phenyl-1H-imidazol-5(4H)-one]
2 | 1820 nM | > 10000 nM | 363 nM | 501 nM | Cn1ncc2cc(-c3ccc(C4=NC(C)(c5ccccc5)C(=O)N4C[C@@H]4CCN(C(=O)C5CC5)C4)cc3)ccc21 (mixture of isomers) [Compound 6, (4RS)-1-(((R)-1-(cyclopropanecarbonyl)pyrrolidin-3-yl)methyl)-4-methyl-2-(4-(1-methyl-1H-indazol-5-yl)phenyl)-4-phenyl-1H-imidazol-5(4H)-one]
3 | 234 nM | > 10000 nM | 132 nM | 74.1 nM | CC1(c2ccccc2)N=C(c2ccc(-c3ccc4[nH]ccc4c3)cc2)N(C[C@@H]2CCN(C(=O)C3CC3)C2)C1=O (mixture of isomers) [Compound 7, (4RS)-2-(4-(1H-Indol-5-yl)phenyl)-1-(((R)-1-(cyclopropanecarbonyl)pyrrolidin-3-yl)methyl)-4-methyl-4-phenyl-1H-imidazol-5(4H)-one]
4 | 2570 nM | > 10000 nM | 1150 nM | 1290 nM | COCC1(C)N=C(c2ccc(-c3ccc4occc4c3)cc2)N(C[C@@H]2CCN(C(=O)C3CC3)C2)C1=O (mixture of isomers) [Compound 8, (4RS)-2-(4-(Benzofuran-5-yl)phenyl)-1-(((R)-1-(cyclopropanecarbonyl)pyrrolidin-3-yl)methyl)-4-(methoxymethyl)-4-methyl-1H-imidazol-5(4H)-one]
5 | 2040 nM | > 10000 nM | ~1910 nM | 1620 nM | CC1(C2CC2)N=C(c2ccc(-c3ccc4occc4c3)cc2)N(C[C@@H]2CCN(C(=O)C3CC3)C2)C1=O (mixture of isomers) [Compound 9, (4RS)-2-(4-(Benzofuran-5-yl)phenyl)-1-(((R)-1-(cyclopropanecarbonyl)pyrrolidin-3-yl)methyl)-4-cyclopropyl-4-methyl-1H-imidazol-5(4H)-one]
6 | 3630 nM | > 10000 nM | ~741 nM | 933 nM | COCC1(C)N=C(c2ccc(-c3ccc4c(cnn4C)c3)cc2)N(C[C@@H]2CCN(C(=O)C3CC3)C2)C1=O (mixture of isomers) [Compound 10, (4RS)-1-(((R)-1-(cyclopropanecarbonyl)pyrrolidin-3-yl)methyl)-4-(methoxymethyl)-4-methyl-2-(4-(1-methyl-1H-indazol-5-yl)phenyl)-1H-imidazol-5(4H)-one]
7 | ~10000 nM | > 10000 nM | 3720 nM | ~2000 nM | CC1(C)N=C(c2ccc(-c3nc4ccccc4o3)cc2)N(C[C@@H]2CCN(C(=O)C3CC3)C2)C1=O [Compound 11, (R)-2-(4-(benzo[d]oxazol-2-yl)phenyl)-1-((1-(cyclopropanecarbonyl)pyrrolidin-3-yl)methyl)-4,4-dimethyl-1H-imidazol-5(4H)-one]
8 | 759 nM | > 10000 nM | 178 nM | 158 nM | CC1(C)N=C(c2ccc(-c3ccc(-c4ccncc4)cc3)cc2)N(C[C@@H]2CCN(C(=O)C3CC3)C2)C1=O [Compound 15, (R)-1-((1-(cyclopropanecarbonyl)pyrrolidin-3-1)methyl)-4,4-dimethyl-2-(4′-(pyridin-4-yl)-[1,1′-biphenyl]-4-yl)-1H-imidazol-5(4H)-one]
9 | 331 nM | > 10000 nM | 186 nM | 174 nM | Cn1cc(-c2ccc(-c3ccc(C4=NC(C)(C)C(=O)N4C[C@@H]4CCN(C(=O)C5CC5)C4)cc3)cc2)cn1 [Compound 16, (R)-1-((1-(cyclopropanecarbonyl)pyrrolidin-3-yl)methyl)-4,4-dimethyl-2-(4′-(1-methyl-1H-pyrazol-4-yl)-[1,1′-biphenyl]-4-yl)-1H-imidazol-5(4H)-one]
10 | 8910 nM | > 10000 nM | 2510 nM | 1820 nM | Cn1cc(-c2ccc(-c3ccc(C4=NC(C)(C)C(=O)N4CC4CN(C(=O)C5CC5)C4)cc3)cc2)cn1 [Compound 17, 1-((1-(cyclopropanecarbonyl)azetidin-3-yl)methyl)-4,4-dimethyl-2-(4′-(1-methyl-1H-pyrazol-4-yl)-[1,1′-biphenyl]-4-yl)-1H-imidazol-5(4H)-one]
11 | 813 nM | > 10000 nM | ~269 nM | 224 nM | CC1(C)N=C(c2ccc(-c3ccc(-c4ccncc4)cc3)cc2F)N(CC2CN(C(=O)C3CC3)C2)C1=O [Compound 22, 1-((1-(cyclopropanecarbonyl)azetidin-3-yl)methyl)-2-(3-fluoro-4′-(pyridin-4-yl)-[1,1′-biphenyl]-4-yl)-4,4-dimethyl-1H-imidazol-5(4H)-one]
12 | 219 nM | > 10000 nM | 75.9 nM | 53.7 nM | CC1(C)N=C(c2ccc(-c3ccc4cccnc4c3)cc2)N(C[C@@H]2CCN(C(=O)C3CC3)C2)C1=O [Compound 23]
13 | 1450 nM | > 10000 nM | ~363 nM | 447 nM | CC1(C)N=C(c2ccc(-c3ccc4cccnc4c3)cc2)N(CC2CN(C(=O)C3CC3)C2)C1=O [Compound 24, 1-((1-(cyclopropanecarbonyl)azetidin-3-yl)methyl)-4,4-dimethyl-2-(4-(quinolin-7-yl)phenyl)-1H-imidazol-5(4H)-one]
14 | 2880 nM | > 10000 nM | 1170 nM | 891 nM | CC1(C)N=C(c2ccc(-c3cnc4ccccc4c3)cc2)N(C[C@@H]2CCN(C(=O)C3CC3)C2)C1=O [Compound 25, (R)-1-((1-(cyclopropanecarbonyl)pyrrolidin-3-yl)methyl)-4,4-dimethyl-2-(4-(quinolin-3-yl)phenyl)-1H-imidazol-5(4H)-one]
15 | 3390 nM | > 10000 nM | 1950 nM | 1000 nM | CC1(C)N=C(c2ccc(-c3ccc(-c4ccncc4)cc3)cc2)N(CC2CN(C(=O)C3CC3)C2)C1=O [Compound 26, 1-((1-(cyclopropanecarbonyl)azetidin-3-yl)methyl)-4,4-dimethyl-2-(4′-(pyridin-4-yl)-[1,1′-biphenyl]-4-yl)-1H-imidazol-5(4H)-one]
16 | 1380 nM | > 10000 nM | ~316 nM | 324 nM | CC1(C)N=C(c2ccc(-c3ccc4cnccc4c3)cc2)N(CC2CN(C(=O)C3CC3)C2)C1=O [Compound 27, 1-((1-(cyclopropanecarbonyl)azetidin-3-yl)methyl)-2-(4-(isoquinolin-6-yl)phenyl)-4,4-dimethyl-1H-imidazol-5(4H)-one]
17 | 1580 nM | > 10000 nM | 58.9 nM | 63.1 nM | CC1(C)N=C(c2ccc(-c3ccc4cnccc4c3)cc2)N(C[C@@H]2CCN(C(=O)C3CC3)C2)C1=O [Compound 28]
